The values that follow come from ChEMBL document CHEMBL5360574, “Optimization of potent, selective and orally bioavailable biphenyl scaffold as FABP4 inhibitors for anti-inflammation” (Eur J Med Chem, 2023).

Molecules are shown by their SMILES. Calls of active or inactive are those of the source. The calls are words filed in the database; no cut-off is given here.

The target of data set [1] is Fatty acid-binding protein, adipocyte (Homo sapiens, UniProt P15090). In words: Displacement of 1,8-ANS from FABP4 (unknown origin) assessed as inhibition constant by fluorescence based analysis.
Data set [2] deals with Fatty acid-binding protein, heart (Homo sapiens, UniProt P05413). In words: Displacement of 1,8-ANS from FABP3 (unknown origin) assessed as inhibition constant by fluorescence based analysis.
Data set [3] has as its system 3T3-L1. In words: Cytotoxicity against mouse 3T3-L1 cells assessed as reduction in cell growth at 100 uM measured after 24 hrs by CCK-8 assay. The format is toxicity, cell-based. The conditions noted are these: 3t3-l1, 24 h. (In general: Tetrazolium assays rely on reduction of a dye to a coloured formazan, in cell work by metabolically active cells.)
Data set [4] has as its system THP-1. In words: Cytotoxicity against human THP-1 cells assessed as reduction in cell growth at 80 uM measured after 24 hrs by CCK-8 assay. The format is toxicity, cell-based. Particulars: thp-1, 24 h.
Data set [5] relates to THP-1. In words: Antiinflammatory activity in LPS-induced human THP-1 cells assessed as reduction in MCP-1 mRNA expression at 25 uM incubated for 24 hrs by RT-PCR analysis. It counts as functional, cell-based.
For data set [6], the system named is THP-1. Briefly: Antiinflammatory activity in LPS-induced human THP-1 cells assessed as inhibition of MCP-1 secretion at 1 uM pre-incubated with compound for 18 hrs followed by LPS induction measured after 6 hrs by ELISA method. It counts as functional, cell-based. Particulars: time 24.0 hrs. On the technique in general: An ELISA detects its analyte on a solid surface through an enzyme-linked reagent.

Data set [7] in a line: Metabolic stability in mouse liver microsomes assessed as half life at 0.1 uM measured upto 60 mins in presence of NADPH by LC-MS/MS analysis. The format is ADME, Microsome.
Data set [8] is described as follows: Metabolic stability in mouse liver microsomes assessed as intrinsic clearance at 0.1 uM measured upto 60 mins in presence of NADPH by LC-MS/MS analysis. The format is ADME, Microsome. Particulars: 1 h.
A short description of data set [9]: Metabolic stability in mouse liver microsomes assessed as intrinsic clearance at 0.1 uM measured per gram protein measured upto 60 mins in presence of NADPH by LC-MS/MS analysis. The format is ADME, Microsome. The conditions noted are these: 1 h. Background: Liver microsomes are vesicles of endoplasmic reticulum, rich in cytochrome P450 enzymes.
A short description of data set [10]: Half life in ICR mouse at 25 mg/kg, po measured upto 24 hrs by LC-MS/MS analysis. The format is ADME, organism-based. Particulars: in vivo.
Data set [11] in a line: Tmax in ICR mouse at 25 mg/kg, po measured upto 24 hrs by LC-MS/MS analysis. The format is ADME, organism-based. Particulars: in vivo.
Data set [12] can be described thus: Cmax in ICR mouse at 25 mg/kg, po measured upto 24 hrs by LC-MS/MS analysis. The format is ADME, organism-based. Also noted: dose 25 mg/kg, time < 24 hrs, route po. Particulars: in vivo.
The nature of data set [13]: AUC(0 to 24 hrs) in ICR mouse at 25 mg/kg, po measured upto 24 hrs by LC-MS/MS analysis. The format is ADME, organism-based. More on the design: time < 24 hrs, dose 25 mg/kg, route po. The conditions noted are these: in vivo.
The nature of data set [14]: Clearance in ICR mouse at 3 mg/kg, iv measured upto 24 hrs by LC-MS/MS analysis. The format is ADME, organism-based. Particulars: in vivo.
The nature of data set [15]: Volume of distribution at steady state in ICR mouse at 3 mg/kg, iv measured upto 24 hrs by LC-MS/MS analysis. The conditions noted are these: in vivo, read-out: Vdss. The format is ADME, organism-based.
Data set [16] is described as follows: MRT in ICR mouse at 25 mg/kg, po measured upto 24 hrs by LC-MS/MS analysis. The conditions noted are these: in vivo. The format is ADME, organism-based.
Data set [17] in a line: Oral bioavailability in ICR mouse at 25 mg/kg measured upto 24 hrs by LC-MS/MS analysis. It counts as ADME, organism-based. The conditions noted are these: in vivo.
Data set [18] can be described thus: Half life in ICR mouse at 3 mg/kg, iv measured upto 24 hrs by LC-MS/MS analysis. It counts as ADME, organism-based. The conditions noted are these: in vivo.
Data set [19] can be described thus: AUC(0 to 24 hrs) in ICR mouse at 3 mg/kg, iv measured upto 24 hrs by LC-MS/MS analysis. The format is ADME, organism-based. Also noted: dose 3 mg/kg, time < 24 hrs, route iv. Particulars: in vivo.
Data set [20] can be described thus: MRT in ICR mouse at 3 mg/kg, iv measured upto 24 hrs by LC-MS/MS analysis. The format is ADME, organism-based. Particulars: in vivo.
Data set [21] relates to Mus musculus. Briefly: Antiinflammatory activity in LPS-induced acute inflammation C57BL/6J mouse model assessed as reduction in MCP-1 level in serum at 50 mg/kg, po qd via gavage administered for 4 days followed by LPS induction. The format is functional, organism-based. Particulars: time 4.0 day.
Data set [22] in a line: Toxicity in LPS-induced acute inflammation C57BL/6J mouse model assessed as change in body weight at 50 mg/kg, po qd via gavage administered for 4 days followed by LPS induction. The format is organism-based. The conditions noted are these: in vivo, 96 h, time 4 day.
Data set [23] deals with Mus musculus. In words: Antiinflammatory activity in LPS-induced acute inflammation C57BL/6J mouse model assessed as reduction in ALT level in serum at 50 mg/kg, po qd via gavage administered for 4 days followed by LPS induction. It counts as functional, organism-based. The conditions noted are these: time 4.0 day.
For data set [24], the system named is Mus musculus. In words: Antiinflammatory activity in LPS-induced acute inflammation C57BL/6J mouse model assessed as reduction in AST level in serum at 50 mg/kg, po qd via gavage administered for 4 days followed by LPS induction. The format is functional, organism-based. Particulars: time 4.0 day.
Data set [25] is described as follows: Toxicity in LPS-induced acute inflammation C57BL/6J mouse model assessed as effect on liver damage at 50 mg/kg, po qd via gavage administered for 4 days followed by LPS induction by hematoxylin and eosin staining based microscopic analysis. It counts as organism-based. The conditions noted are these: in vivo, 96 h, time 4 day.
The nature of data set [26]: Toxicity in LPS-induced acute inflammation C57BL/6J mouse model assessed as effect on spleen damage at 50 mg/kg, po qd via gavage administered for 4 days followed by LPS induction by hematoxylin and eosin staining based microscopic analysis. The format is organism-based. Particulars: in vivo, 96 h, time 4 day.

Chain of Fatty acid-binding protein, adipocyte (P15090 whole entry): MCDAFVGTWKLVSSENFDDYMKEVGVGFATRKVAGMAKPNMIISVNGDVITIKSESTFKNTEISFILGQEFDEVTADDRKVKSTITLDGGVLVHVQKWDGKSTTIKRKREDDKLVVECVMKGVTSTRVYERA
Chain of Fatty acid-binding protein, heart (P05413 whole entry): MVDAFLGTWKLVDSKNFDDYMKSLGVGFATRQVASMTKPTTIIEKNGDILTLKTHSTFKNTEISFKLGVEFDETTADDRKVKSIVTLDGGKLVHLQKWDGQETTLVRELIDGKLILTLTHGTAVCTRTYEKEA

For orientation: Ki means the dissociation constant of the complex between target and ligand, obtained from inhibition or displacement. With `O=C(O)c1cc(-c2cccc(Cl)c2-c2ccc3c(c2)CCO3)ccc1[N+](=O)[O-]`, the Ki in [1] was found to be 300 nM.

Turning to `O=C(O)c1cc(-c2cccc(Cl)c2-c2ccc3occc3c2)ccc1C(F)(F)F`, the Ki in data set [1] came to 720 nM.

Consider `O=C(O)c1cc(O)cc(-c2cccc(Cl)c2-c2ccc3c(c2)CCO3)c1`, for which the Ki in data set [1] amounted to 550 nM.

Regarding `O=C(O)C1CCc2ccc(-c3cccc(Cl)c3-c3ccc4c(c3)OCO4)cc21` (centres undefined), the Ki in data set [1] turned out to be 790 nM.

With `O=C(O)C1CCc2ccc(-c3cccc(Cl)c3OCC3CCCCC3)cc21` (centres undefined), the Ki in [1] was 1800 nM.

On to `O=C(O)C1CCc2ccc(-c3cccc(Cl)c3OCc3ccccc3)cc21` (centres undefined), for which the Ki in data set [1] was 1320 nM.

As usually defined, the half-life is the time in which the quantity being followed falls by half. Usually Tmax stands for the time from dosing to the highest level. In general, Cmax refers to the highest concentration seen after dosing. In general, AUC(0-t) refers to the area under the concentration-time curve up to a stated or last time point. By clearance is commonly meant the rate of elimination divided by the concentration. A high value points to a high capacity for elimination. Usually MRT stands for the average time that molecules of a dose stay in the body. Broadly, the bioavailability is the share of a dose that reaches the circulation, judged against a reference dose that is usually intravenous. A high value points to much systemic uptake. In the case of `O=C(O)c1cc(-c2cccc(Cl)c2-c2ccc3c(c2)CCO3)ccc1C(F)(F)F`, the Ki in data set [1] came out at 510 nM; in [2], 33000 nM. The Activity entry in data set [3], in data set [4], in data set [22], in data set [25] and in data set [26] was “Non-Toxic” throughout. Further, the outcome in data set [5], in data set [6], in [21], in [23] and in [24] was Active. Further, the half-life at 0.1 µM in [7] amounted to 8.9 h. The CLH came out at 0.266 mL/min in data set [8] and 3.94 mL/min/g in data set [9]. Besides, the figures for the half-life in data set [10] and in data set [18] were 3.43 h and 5.64 h, respectively. Also, the Tmax in data set [11] is 0.25 h. The same compound yielded a Cmax in data set [12] of 15500 ng/mL. Also, the AUC(0-t) at 24 h in data set [13] came out at 26800 ng·h/mL; in data set [19], 3600 ng·h/mL. This compound also gave a clearance in [14] of 12.5 mL/min/kg. In data set [15], the Vd was 3.32 L/kg. In addition, the MRT in data set [16] worked out at 5.3 h; in [20], 4.04 h. The bioavailability in data set [17] was determined as 89.4%.

On to `O=C(O)C1CCc2ccc(-c3cccc(Cl)c3-c3ccc4occc4c3)cc21` (centres undefined), for which the Ki in [1] was 690 nM.

With `CCc1c(-c2ccccc2)c(-c2ccccc2)nn1-c1ccccc1-c1cccc(OCC(=O)O)c1`, the Activity entry in data set [3], in [4], in [22], in data set [25] and in data set [26] was “Non-Toxic” in each case. Moreover, the result in data set [5], in data set [21], in data set [23] and in data set [24] was Active.

Consider `O=C(O)C1CCc2ccc(-c3cccc(Cl)c3OC3CCC3)cc21` (centres undefined), for which, in [1], the Ki amounted to 790 nM.

In the case of `O=C(O)C1CCc2ccc(-c3cccc(Cl)c3OCC3CCCC3)cc21` (centres undefined), the Ki in data set [1] was found to be 1730 nM.

On to `CC(C(=O)O)c1cccc(-c2cccc(Cl)c2-c2ccc3c(c2)CCO3)c1` (centres undefined), for which the inhibition constant (Ki) in data set [1] came to 1470 nM.

For `CS(=O)(=O)Nc1ccc(-c2cccc(Cl)c2-c2ccc3c(c2)CCO3)cc1C(=O)O`, in data set [1], the Ki was determined as 330 nM.

As to `O=C(O)C1CCc2ccc(-c3cccc(Cl)c3-c3ccc4c(c3)CCO4)cc21` (centres undefined), the Ki in [1] was 580 nM; in data set [2] it was 18100 nM. In addition, the Activity result in [3] and in data set [4] was “Non-Toxic” each time. Besides, the result in [5] was Active. Besides, in data set [7], the half-life at 0.1 µM was 0.883 h. For the same compound, the CLH amounted to 2.66 mL/min in [8] and 39.4 mL/min/g in data set [9].

For the compound `O=C(O)c1cc(-c2cccc(Cl)c2-c2ccc3c(c2)OCO3)ccc1C(F)(F)F`, the Ki in data set [1] worked out at 1690 nM.

For `O=C(O)CCc1cccc(-c2cccc(Cl)c2-c2ccc3c(c2)CCO3)c1`, the Ki in data set [1] was determined as 1810 nM.

Take `O=C(O)c1cc(-c2cccc(Cl)c2-c2ccc3c(c2)CCO3)ccc1O`: the Ki in data set [1] was determined as 280 nM.

Take `O=C(O)c1ccccc1Nc1cccc(Cl)c1-c1ccc2c(c1)CCO2`: the Ki in [2] came to 920 nM. In addition, the Activity entry in [3] and in [4] was “Non-Toxic” throughout.

Turning to `O=C(O)C1CCc2ccc(-c3cccc(Cl)c3OCC3CCC3)cc21` (centres undefined), the Ki in [1] came to 750 nM.

Consider `Nc1ccc(-c2cccc(Cl)c2-c2ccc3c(c2)CCO3)cc1C(=O)O`, for which the Ki in data set [1] is 430 nM.

Consider `O=C(O)c1cccc(-c2cccc(Cl)c2-c2ccc3c(c2)CCO3)c1`, for which, in data set [1], the Ki came out at 480 nM.

Consider `Cc1ccc(-c2cccc(Cl)c2-c2ccc3c(c2)CCO3)cc1C(=O)O`, for which the Ki in data set [1] was 320 nM.

As to `O=C(O)C1CCc2ccc(-c3cccc(Cl)c3-c3ccc4nonc4c3)cc21` (centres undefined), the Ki in data set [1] is 2370 nM.

For the compound `O=C(O)Cc1cccc(-c2cccc(Cl)c2-c2ccc3c(c2)CCO3)c1`, the Ki in data set [1] was found to be 350 nM.

`O=C(O)c1cc(-c2cccc(Cl)c2-c2ccc3nonc3c2)ccc1C(F)(F)F`: the Ki in data set [1] worked out at 920 nM.

On to `O=C(O)C1CCc2ccc(-c3cccc(Cl)c3-c3ccc4[nH]ncc4c3)cc21` (centres undefined), for which the Ki in data set [1] is 760 nM.

As for `O=C(O)C1CCc2ccc(-c3cccc(Cl)c3-c3ccc4ocnc4c3)cc21` (centres undefined), the Ki in data set [1] is 740 nM.
